We go through one molecule from patent publication US20250129140A1, “ANTI-HCMV ANTIBODIES AND ANTIGEN-BINDING FRAGMENTS THEREOF” (ICAHN SCHOOL OF MEDICINE AT MOUNT SINAI, priority 2021, published 2025).

This test deals with CMV TB40/E infected fibroblasts. The test is described as follows: SCID mouse gelfoam implant model of CMV proliferation. Particulars: fully human mAbs 4 or 18 mg/kg, ganciclovir 50 mg/kg; i.p. every three days; day ten; versus isotype control. It is filed as in vivo, SCID mice. As to the method:
At day ten post-implantation, the cells were released from the gelfoam and DNA extracted from the cells was subjected to qPCR for the HCMV UL123 and β-actin genes. The relative CMV levels cells were determined from Ct values of qPCR analysis (in triplicate) from cells collected from three mice/treatment. Statistical tests were performed using ordinary one-way ANOVA with comparisons to isotype treated cells as a control and a Dunnett's post-test; **, p<0.01; ***, p<0.001; ****, p<0.0001.
The gelfoam was implanted subcutaneously in three mice per group. […] Treatments were administrated every three days for nine days. At day ten post-implant, the gelfoam was removed and cells were released from the gel foam by collagenase treatment. The total DNA was harvest from the cells, quantified, and subjected to qPCR for UL123 (CMV gene) and b-actin (housekeeping geen) using SYBR green to evaluate virus proliferation. The qPCR analysis was performed in triplicate from three animals to determine the Ct values for UL123 and b-actin to calculate the relative levels of CMV DNA from the gelfoam samples.

`Nc1nc(O)c2ncn(COC(CO)CO)c2n1` [ganciclovir, reference compound]: the “CMV DNA levels (UL123 relative to β-actin, qPCR)” value was “effective at decreasing CMV DNA levels”.
